# The source made the active and inactive calls.
# What was measured:
# [1] = target: Induced myeloid leukemia cell differentiation protein Mcl-1 (Homo sapiens, UniProt Q07820); format: functional
# SUMO-activating enzyme [2] = target: T1, SUMO-activating enzyme (Homo sapiens, UniProt Q9UBT2); assay: blockers of UBC9-mediated SUMO conjugation – biochemical, AlphaScreen, SUMOylation inhibitor project, confirmation (AID 2018); format: functional
# SUMO-activating enzyme [3] = target: T1, SUMO-activating enzyme; assay: blockers of SAE1/SAE2–UBC9 SUMO transfer – biochemical, HTRF, uHTS, primary screen (AID 2006); format: protein-complex assay
# HeLa = assay: viability loss in HeLa cells – cell-based, 24 h, cherry-picked samples, cytotoxicity control, dose response (AID 504726); format: functional; conditions: Homo sapiens;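 also: potency for cytotoxicity as loss of luminescence signal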
# [4] = target: T2, Neuropeptides B/W receptor type 1 (Homo sapiens, UniProt P48145); assay: human NPBW1 receptor blockade, IC50 – cell-based, fluorescence, dose response, late-stage follow-up (AID 463251); format: functional
# T2 sequence (P48145 whole entry): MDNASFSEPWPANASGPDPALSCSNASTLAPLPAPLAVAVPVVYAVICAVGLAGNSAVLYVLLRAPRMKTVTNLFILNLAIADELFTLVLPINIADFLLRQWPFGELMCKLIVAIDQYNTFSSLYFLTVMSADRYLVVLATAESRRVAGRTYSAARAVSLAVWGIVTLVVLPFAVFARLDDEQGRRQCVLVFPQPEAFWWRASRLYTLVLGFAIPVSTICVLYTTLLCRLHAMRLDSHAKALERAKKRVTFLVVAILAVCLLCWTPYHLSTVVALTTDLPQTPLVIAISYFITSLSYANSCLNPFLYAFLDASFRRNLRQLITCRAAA
# [5] = target: T3, Melanin-concentrating hormone receptor 1 (Homo sapiens, UniProt Q99705); assay: Late-stage fluorescence-based counterscreen for antagonists of the G-protein coupled receptor 7 (GPR7): cell-based dose response assay to identify antagonists of the melanin-concentrating hormone receptor 1 (MCHR1). [Related pubchem assays (depositor defined):AID1861, AID1880, AID1952, AID2148, AID2251, AID2257, AID485339]; format: functional
# T3 sequence (Q99705 whole entry): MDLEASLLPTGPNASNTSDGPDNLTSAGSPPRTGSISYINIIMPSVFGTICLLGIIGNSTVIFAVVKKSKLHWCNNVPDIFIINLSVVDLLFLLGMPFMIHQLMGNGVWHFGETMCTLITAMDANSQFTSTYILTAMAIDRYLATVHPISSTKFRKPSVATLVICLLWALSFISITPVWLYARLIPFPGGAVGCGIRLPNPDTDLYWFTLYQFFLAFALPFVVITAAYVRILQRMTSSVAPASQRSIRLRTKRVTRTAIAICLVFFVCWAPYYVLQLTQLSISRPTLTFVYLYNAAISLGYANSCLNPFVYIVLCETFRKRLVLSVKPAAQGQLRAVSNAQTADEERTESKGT
# [6] = alpha-synuclein stem-loop translation blockers – luminescence, H4 neuroglioblastoma cells, dose confirmation, confirmation (AID 2454); format: functional, cell-based;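 also: H4 neuroglioblastoma cells carrying an alpha-synuclein 5'UTR luciferase reporter; potency for inhibition of the luciferase signal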
# [7] = Luminescence Cell-Based Dose Response HTS to Identify Inhibitors of 5'UTR Stem-Loop Driven Prion Protein mRNA Translation in H4 Neuroglioblastoma Cells. [Related pubchem assays: 1827 (Project Summary), 1813 (Primary HTS)]; format: functional
# cells [8] = format: functional, cell-based
# [9] = luciferase reporter signal reduction – luminescence, H4-C neuroglioblastoma cells, dose response (AID 2458); format: functional, cell-based;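 also: H4 neuroglioblastoma cells stably carrying a luciferase reporter gene fusion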
# [10] = target: T4, Microphthalmia-associated transcription factor (Homo sapiens, UniProt O75030); assay: reducers of TRPM1 reporter luminescence, concentration series – cell-based, SK-MEL-5, cherry-picked, set 3, MITF inhibitor project, dose response (AID 493073); format: functional;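 also: SK-MEL-5 melanoma cells with luciferase driven by the MITF target TRPM1 promoter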
# T4 sequence (O75030 whole entry): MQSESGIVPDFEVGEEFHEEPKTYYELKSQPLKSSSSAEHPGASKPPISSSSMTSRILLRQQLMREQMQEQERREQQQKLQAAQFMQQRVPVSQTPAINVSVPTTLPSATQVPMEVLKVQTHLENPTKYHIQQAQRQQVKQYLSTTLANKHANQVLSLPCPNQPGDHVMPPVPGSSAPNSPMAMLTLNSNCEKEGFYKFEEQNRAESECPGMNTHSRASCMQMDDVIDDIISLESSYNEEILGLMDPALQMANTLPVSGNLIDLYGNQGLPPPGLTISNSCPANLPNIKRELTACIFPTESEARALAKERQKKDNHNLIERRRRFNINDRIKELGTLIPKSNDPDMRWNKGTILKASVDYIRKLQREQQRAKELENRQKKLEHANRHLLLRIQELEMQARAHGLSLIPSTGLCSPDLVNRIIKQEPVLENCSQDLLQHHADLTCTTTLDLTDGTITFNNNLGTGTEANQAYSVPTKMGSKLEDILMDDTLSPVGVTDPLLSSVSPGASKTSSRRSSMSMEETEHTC
# [11] = luciferase reporter signal suppression in cells – H4 neuroglioma cells, luminescence, dose response (AID 1990); format: functional, cell-based
# [12] = target: T3, Melanin-concentrating hormone receptor 1; assay: Fluorescence-based counterscreen for antagonists of the G-protein coupled receptor 7 (GPR7): cell-based high throughput dose response assay to identify antagonists of the melanin-concentrating hormone receptor 1 (MCHR1).; format: functional
# [13] = target: T2, Neuropeptides B/W receptor type 1; assay: Fluorescence-based dose response cell-based high throughput screening assay to identify antagonists of the G-protein coupled receptor 7 (GPR7). [Related pubchem assays: 1952 (Screening assay (GPR7 antagonists).), 1880 (Summary AID.)]; format: functional
# Genome polyprotein = Genome polyprotein (dengue virus type 2, UniProt P29990); assay: flavivirus cap methylation enzyme inhibition – biochemical, confirmation dose response, primary screen (AID 588689); format: functional
# Chain of Genome polyprotein (P29990 2492-3391 limits assumed): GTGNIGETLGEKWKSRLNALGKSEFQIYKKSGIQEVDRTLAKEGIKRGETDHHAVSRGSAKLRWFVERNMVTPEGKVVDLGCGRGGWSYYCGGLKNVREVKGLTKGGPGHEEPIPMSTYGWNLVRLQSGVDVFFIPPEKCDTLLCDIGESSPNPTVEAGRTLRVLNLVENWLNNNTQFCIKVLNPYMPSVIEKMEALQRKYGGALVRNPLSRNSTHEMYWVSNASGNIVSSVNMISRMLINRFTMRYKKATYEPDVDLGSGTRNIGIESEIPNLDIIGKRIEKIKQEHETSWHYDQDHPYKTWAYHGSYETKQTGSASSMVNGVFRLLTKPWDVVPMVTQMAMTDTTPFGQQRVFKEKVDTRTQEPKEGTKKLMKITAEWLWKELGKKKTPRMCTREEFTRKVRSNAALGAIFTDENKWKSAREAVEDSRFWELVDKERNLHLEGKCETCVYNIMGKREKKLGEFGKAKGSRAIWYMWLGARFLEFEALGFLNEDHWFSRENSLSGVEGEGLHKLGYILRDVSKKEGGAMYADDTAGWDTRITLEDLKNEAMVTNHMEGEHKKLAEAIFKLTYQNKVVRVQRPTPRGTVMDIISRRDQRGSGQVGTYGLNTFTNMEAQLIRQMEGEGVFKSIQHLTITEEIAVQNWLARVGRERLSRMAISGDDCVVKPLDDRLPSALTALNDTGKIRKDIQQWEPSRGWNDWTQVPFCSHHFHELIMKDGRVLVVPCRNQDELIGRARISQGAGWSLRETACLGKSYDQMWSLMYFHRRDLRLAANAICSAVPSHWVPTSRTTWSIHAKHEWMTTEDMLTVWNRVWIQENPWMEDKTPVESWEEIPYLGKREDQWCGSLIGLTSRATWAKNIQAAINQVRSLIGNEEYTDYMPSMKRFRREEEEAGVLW
# [14] = target: T5, Small ubiquitin-related modifier 1 (Homo sapiens, UniProt P63165); assay: SUMO1 protein-protein binding blockers, potency – biochemical, FRET, dose response (AID 624383); format: functional; conditions: read-out: IC50_Mean
# T5 sequence (P63165 whole entry): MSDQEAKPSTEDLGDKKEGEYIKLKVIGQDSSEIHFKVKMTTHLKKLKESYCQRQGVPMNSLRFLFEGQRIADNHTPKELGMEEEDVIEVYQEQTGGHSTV
# [15] = target: T5, Small ubiquitin-related modifier 1; assay: SUMO1 protein interaction blockers, potency – biochemical, fluorescence polarization, uHTS hits, dose response (AID 624382); format: functional; conditions: read-out: IC50_Mean
# [16] = target: T6, Rac GTPase-activating protein 1 (Homo sapiens, UniProt Q9H0H5); assay: blockers of MgcRacGAP-driven Rac1 GTP hydrolysis – biochemical, ADP Hunter fluorescence, primary and confirmatory, confirmation (AID 624330); format: functional
# T6 sequence (Q9H0H5 whole entry): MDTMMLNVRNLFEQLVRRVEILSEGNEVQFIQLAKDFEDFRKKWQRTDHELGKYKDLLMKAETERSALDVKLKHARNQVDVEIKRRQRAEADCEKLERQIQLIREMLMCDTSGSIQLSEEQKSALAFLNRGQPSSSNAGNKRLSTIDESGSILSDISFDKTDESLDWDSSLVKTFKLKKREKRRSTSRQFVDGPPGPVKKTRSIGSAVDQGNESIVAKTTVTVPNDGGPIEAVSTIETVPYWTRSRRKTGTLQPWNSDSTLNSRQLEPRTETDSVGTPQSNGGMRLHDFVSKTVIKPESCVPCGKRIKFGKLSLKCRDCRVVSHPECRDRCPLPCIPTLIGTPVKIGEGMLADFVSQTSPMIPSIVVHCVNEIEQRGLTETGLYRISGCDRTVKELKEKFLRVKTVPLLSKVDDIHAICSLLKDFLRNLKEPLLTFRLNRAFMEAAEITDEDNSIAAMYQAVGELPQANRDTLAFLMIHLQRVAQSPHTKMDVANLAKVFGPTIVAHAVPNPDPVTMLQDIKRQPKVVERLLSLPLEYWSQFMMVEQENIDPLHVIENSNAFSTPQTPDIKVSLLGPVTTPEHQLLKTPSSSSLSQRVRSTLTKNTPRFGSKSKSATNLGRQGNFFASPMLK
# ORF 73 = ORF 73 (Human herpesvirus 8, UniProt O40947); assay: KSHV LANA DNA-binding disruption – biochemical, fluorescence polarization, cherry-picked samples, dose response (AID 504725); parameters: species or system Human gammaherpesvirus 8;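 also: fluorescence polarization of a labeled DNA duplex reporting LANA DNA binding; potency is for inhibitors that block LANA binding to the DNA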
# Caspase-6 = target: T7, Caspase-6 (Homo sapiens, UniProt P55212); assay: inhibition of CASP6 peptide cleavage – biochemical, VEID-R110 fluorescence, cherry-pick, dose response (AID 720632)
# T7 sequence (P55212 whole entry): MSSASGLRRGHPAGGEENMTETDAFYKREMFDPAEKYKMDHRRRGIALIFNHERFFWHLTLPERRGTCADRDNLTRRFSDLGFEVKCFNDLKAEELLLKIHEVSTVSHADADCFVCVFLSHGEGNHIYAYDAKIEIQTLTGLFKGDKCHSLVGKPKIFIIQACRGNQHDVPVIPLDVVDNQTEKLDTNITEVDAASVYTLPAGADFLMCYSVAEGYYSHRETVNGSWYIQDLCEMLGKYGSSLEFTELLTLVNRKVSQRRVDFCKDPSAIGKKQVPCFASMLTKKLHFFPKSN
# [17] = target: G-protein coupled receptor 55 (Homo sapiens, UniProt Q9Y2T6); assay: inhibition of LPI-stimulated GPR55 beta-arrestin translocation – imaging, U2OS, beta-arrestin-GFP, LPI agonist, primary screen (AID 2013); format: functional;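 also: antagonist potency measured as reduced agonist-driven arrestin aggregation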
# Chain of G-protein coupled receptor 55 (Q9Y2T6 whole entry): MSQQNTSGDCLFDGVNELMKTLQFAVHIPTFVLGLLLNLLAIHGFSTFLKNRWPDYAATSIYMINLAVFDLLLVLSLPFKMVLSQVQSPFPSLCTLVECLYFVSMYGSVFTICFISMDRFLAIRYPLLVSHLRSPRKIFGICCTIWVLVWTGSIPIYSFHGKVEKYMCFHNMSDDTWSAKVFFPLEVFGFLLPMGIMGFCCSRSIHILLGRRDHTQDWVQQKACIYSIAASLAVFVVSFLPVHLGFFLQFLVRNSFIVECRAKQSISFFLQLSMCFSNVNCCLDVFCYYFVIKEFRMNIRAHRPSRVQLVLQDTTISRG
# [18] = Luminescence Cell-Based Dose Retest to Confirm Inhibitors of Cancer Stem Cells. [Related pubchem assays (depositor defined):AID2717, AID2721]; format: functional; conditions: Homo sapiens
# [19] = Vero E6 cell cytotoxicity, dose response, cytotoxicity control for non-replicating M. tuberculosis project, secondary assay (AID 492998); format: functional, VeroE6; conditions: Vero C1008
# [20] = target: Neurotensin receptor type 1 (Homo sapiens, UniProt P30989); format: functional;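 also: Image-based confirmatory dose-response assay measuring agonist activity at NTR1; NTR1-expressing U2OS osteosarcoma cells imaged for beta-arrestin GFP spot formation; agonist potency where compounds increase beta-arrestin recruitment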
# Chain of Neurotensin receptor type 1 (P30989 whole entry): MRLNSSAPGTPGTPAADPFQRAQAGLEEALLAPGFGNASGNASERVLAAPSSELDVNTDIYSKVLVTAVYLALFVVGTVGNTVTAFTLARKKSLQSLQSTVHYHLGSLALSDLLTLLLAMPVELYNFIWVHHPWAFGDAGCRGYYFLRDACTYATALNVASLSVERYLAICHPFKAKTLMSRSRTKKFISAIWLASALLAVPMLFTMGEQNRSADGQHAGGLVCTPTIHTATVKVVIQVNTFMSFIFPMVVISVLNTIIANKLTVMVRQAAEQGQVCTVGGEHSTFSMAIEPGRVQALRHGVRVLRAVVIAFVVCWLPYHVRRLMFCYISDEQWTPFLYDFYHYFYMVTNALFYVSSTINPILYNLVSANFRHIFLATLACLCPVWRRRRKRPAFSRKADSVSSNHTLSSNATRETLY
# cells [21] = format: functional
# [22] = HepG2 cell cytotoxicity, dose response, cytotoxicity control for non-replicating M. tuberculosis project (AID 489018); format: functional; conditions: Mycobacterium tuberculosis
# [23] = THP-1 cell cytotoxicity, dose response, cytotoxicity control for non-replicating M. tuberculosis project (AID 489025); format: functional
# [24] = target: Eukaryotic translation initiation factor 4H (Homo sapiens, UniProt Q15056); assay: inhibitors of translation initiation factor eIF4H – SAR follow-up (AID 435011); format: functional
# [25] = target: Polyadenylate-binding protein 1 (Homo sapiens, UniProt P11940); assay: PABP inhibition in translation initiation, SAR follow-up (AID 435018); format: functional
# Chain of Polyadenylate-binding protein 1 (P11940 whole entry): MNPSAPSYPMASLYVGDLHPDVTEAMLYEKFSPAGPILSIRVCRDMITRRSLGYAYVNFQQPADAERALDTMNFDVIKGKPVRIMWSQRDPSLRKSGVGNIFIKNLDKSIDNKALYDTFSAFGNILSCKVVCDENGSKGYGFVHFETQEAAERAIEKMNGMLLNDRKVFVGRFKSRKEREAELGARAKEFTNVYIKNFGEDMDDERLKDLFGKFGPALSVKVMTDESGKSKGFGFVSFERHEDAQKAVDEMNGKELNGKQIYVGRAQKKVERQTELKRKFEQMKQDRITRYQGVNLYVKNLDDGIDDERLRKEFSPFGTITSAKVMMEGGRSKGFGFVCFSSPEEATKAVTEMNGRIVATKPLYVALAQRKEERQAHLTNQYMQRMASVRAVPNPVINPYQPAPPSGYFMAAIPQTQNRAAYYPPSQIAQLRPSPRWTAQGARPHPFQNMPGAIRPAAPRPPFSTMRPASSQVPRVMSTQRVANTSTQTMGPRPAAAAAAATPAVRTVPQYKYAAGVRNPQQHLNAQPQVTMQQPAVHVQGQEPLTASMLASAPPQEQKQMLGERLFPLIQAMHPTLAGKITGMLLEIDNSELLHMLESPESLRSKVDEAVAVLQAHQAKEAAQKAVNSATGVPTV
# T1 sequence (Q9UBE0 whole entry): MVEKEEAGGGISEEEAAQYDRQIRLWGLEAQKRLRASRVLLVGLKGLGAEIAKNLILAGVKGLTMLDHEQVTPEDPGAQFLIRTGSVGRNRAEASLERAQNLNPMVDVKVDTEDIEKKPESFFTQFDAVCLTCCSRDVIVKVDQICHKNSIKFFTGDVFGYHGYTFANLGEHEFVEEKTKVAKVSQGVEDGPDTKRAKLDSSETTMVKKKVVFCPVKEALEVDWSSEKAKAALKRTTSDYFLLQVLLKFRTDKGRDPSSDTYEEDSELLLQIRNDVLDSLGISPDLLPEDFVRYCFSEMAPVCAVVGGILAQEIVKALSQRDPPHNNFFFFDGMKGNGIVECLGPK
# T1 sequence (Q9UBT2 whole entry): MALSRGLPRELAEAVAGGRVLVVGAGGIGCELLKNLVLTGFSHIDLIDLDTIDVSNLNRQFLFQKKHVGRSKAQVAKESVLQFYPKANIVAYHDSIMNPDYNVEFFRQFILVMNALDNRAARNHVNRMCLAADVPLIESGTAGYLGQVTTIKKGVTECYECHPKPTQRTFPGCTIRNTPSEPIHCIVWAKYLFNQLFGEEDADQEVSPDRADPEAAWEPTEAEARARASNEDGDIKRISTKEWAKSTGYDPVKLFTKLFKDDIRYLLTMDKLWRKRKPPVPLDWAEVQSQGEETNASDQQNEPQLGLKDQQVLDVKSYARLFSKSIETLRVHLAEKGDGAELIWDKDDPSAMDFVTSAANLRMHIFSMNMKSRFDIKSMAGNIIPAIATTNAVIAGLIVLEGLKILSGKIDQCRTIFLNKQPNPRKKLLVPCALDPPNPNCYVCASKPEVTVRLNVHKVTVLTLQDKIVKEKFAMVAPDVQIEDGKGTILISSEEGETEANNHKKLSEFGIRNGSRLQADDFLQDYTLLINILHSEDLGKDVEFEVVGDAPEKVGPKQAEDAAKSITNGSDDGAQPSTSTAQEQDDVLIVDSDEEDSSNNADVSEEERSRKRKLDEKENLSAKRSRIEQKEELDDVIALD
# Chain of Induced myeloid leukemia cell differentiation protein Mcl-1 (Q07820 whole entry): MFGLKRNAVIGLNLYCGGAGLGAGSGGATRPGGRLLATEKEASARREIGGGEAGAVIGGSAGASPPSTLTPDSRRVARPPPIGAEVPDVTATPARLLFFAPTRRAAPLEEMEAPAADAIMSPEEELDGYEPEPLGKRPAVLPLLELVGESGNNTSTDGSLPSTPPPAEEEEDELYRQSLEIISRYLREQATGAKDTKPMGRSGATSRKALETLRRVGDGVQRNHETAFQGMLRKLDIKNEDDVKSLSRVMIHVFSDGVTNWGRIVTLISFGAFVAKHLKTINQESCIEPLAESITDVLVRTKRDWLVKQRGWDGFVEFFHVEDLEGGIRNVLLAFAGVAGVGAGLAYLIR
compound,measurement,setting,value
NC(=S)n1nc(-c2ccc([N+](=O)[O-])cc2)c(/N=N/c2cccc(Cl)c2)c1O,IC50,[1],1.44 µM (active)
same,IC50,SUMO-activating enzyme [2],3.29 µM (active)
same,IC50,SUMO-activating enzyme [3],51.5 µM (active)
CNC(S)=Nc1cccc(C(=O)OC)c1,AC50,HeLa,213 µM (active)
O=C(C1CCCCN1Cc1ccc(Cl)cc1)N1CCN(c2ccc([N+](=O)[O-])cc2)CC1 (stereo unspecified),IC50,[4],1.6 µM (active)
same,IC50,[5],1.8 µM (active)
Cc1ccc(C(=O)c2cccc(N)c2)cc1C,EC50,[6],1.46 µM (active)
same,EC50,[7],< 100 nM (active)
same,EC50,cells [8],2.86 µM (active)
same,EC50,[9],1.11 µM (active)
same,AC50,[10],3.62 µM (active)
same,EC50,[11],< 100 nM (active)
COc1cc(OC)c(S(=O)(=O)N2CCCCC2)cc1S(=O)(=O)N1CCCCC1,IC50,[4],> 20 µM (inactive)
same,IC50,[12],> 43.8 µM (not active)
same,IC50,[5],> 20 µM (inactive)
same,IC50,[13],7.02 µM (active)
CC(=O)Nc1ccc(S(=O)(=O)Nc2nc3ccccc3nc2Nc2ccc(C(=O)O)c(O)c2)cc1,IC50,Genome polyprotein,> 100 µM (active)
same,IC50,[14],88.1 µM (inactive)
same,IC50,[15],> 66.6 µM (inactive)
same,IC50,[16],166 µM (active)
same,AC50,ORF 73,42.3 µM (active)
same,AC50,Caspase-6,13.2 µM (active)
Cc1cc(Cl)ccc1NC(=S)N(CCCN1CCOCC1)Cc1cccs1,IC50,[17],6.24 µM (active)
Cc1ccc2c(c1)c1c(n2CC(O)CNC2CCCCC2)CCCC1 (stereo unspecified),AC50,[18],9.21 µM (active)
same,CC50,[19],> 20 µM (active)
same,EC50,[20],17 µM (active)
same,IC50,cells [21],33.4 µM (active)
same,CC50,[22],11.9 µM (active)
same,CC50,[23],12.1 µM (active)
CCOC(=O)Cc1c(Sc2ccccc2)c2cc(C)ccc2n1C,IC50,[24],> 100 µM (inactive)
same,IC50,[25],> 100 µM (inactive)
